Assay results as given in ChEMBL document CHEMBL5252673, “Development of thiazole-appended novel hydrazones as a new class of α-amylase inhibitors with anticancer assets: an in silico and in vitro approach” (RSC Med Chem, 2023).

Key:
[1] = system: A549; test: Antiproliferative activity against human A549 cells assessed as inhibition of cell growth incubated for 48 hrs by MTT assay; type: functional, cell-based; conditions: A549, 48 h
[2] = system: HCT-116; test: Antiproliferative activity against human HCT-116 cells assessed as inhibition of cell growth incubated for 48 hrs by MTT assay; type: functional, cell-based; conditions: HCT-116, 48 h
[3] = molecular target: T1, Alpha amylase (Homo sapiens, UniProt P0DUB6); test: Inhibition of alpha-amylase (unknown origin) using starch as substrate preincubated with substrate for 15 mins followed by compound addition and measured after 15 mins by UV-VIS spectrophotometric analysis
T1 sequence (P0DUB6 whole entry): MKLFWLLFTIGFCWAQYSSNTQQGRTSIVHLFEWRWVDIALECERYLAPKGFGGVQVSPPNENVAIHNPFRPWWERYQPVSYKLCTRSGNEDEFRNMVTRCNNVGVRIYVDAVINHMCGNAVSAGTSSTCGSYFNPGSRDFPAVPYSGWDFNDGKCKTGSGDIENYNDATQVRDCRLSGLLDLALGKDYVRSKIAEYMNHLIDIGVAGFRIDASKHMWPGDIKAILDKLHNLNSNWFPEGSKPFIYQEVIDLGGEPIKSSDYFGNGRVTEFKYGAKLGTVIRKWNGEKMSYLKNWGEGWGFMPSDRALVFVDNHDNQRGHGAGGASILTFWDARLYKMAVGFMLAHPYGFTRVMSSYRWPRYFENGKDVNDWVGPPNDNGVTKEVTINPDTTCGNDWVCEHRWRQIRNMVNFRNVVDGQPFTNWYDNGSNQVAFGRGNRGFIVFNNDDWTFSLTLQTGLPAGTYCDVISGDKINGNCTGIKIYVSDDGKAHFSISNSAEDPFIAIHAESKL

[4] = system: MDA-MB-231; test: Antiproliferative activity against human MDA-MB-231 cells assessed as inhibition of cell growth incubated for 48 hrs by MTT assay; type: functional, cell-based; conditions: MDA-MB-231, 48 h
[5] = molecular target: T1, Alpha amylase; test: Inhibition of alpha-amylase (unknown origin) using starch as substrate incubated for 30 mins by microplate reader analysis
[6] = system: MCF-10A; test: Cytotoxicity against human MCF-10A assessed as reduction in cell viability upto 10 uM incubated for 48 hrs by MTT assay; type: toxicity, cell-based
[7] = system: A549; test: Induction of ROS in human A549 cells at sub IC50 concentration incubated for 24 hrs by H2DCFDA dye based fluorescence assay (reference value: 33.28%); type: functional
[8] = molecular target: T1, Alpha amylase; test: Inhibition of alpha-amylase (unknown origin)
[9] = molecular target: T1, Alpha amylase; test: Inhibition of alpha-amylase (unknown origin) using p-nitrophenylR-D-maltoside as substrate incubated for 30 mins by […]
[10] = system: COc1cc(/C=N/NC(=O)c2csc(Nc3ccc([N+](=O)[O-])cc3)n2)cc(OC)c1OC; test: (§1) Uncompetitive inhibition of alpha-amylase (unknown origin) using starch as substrate assessed as decrease in Km incubated for 30 mins by UV-visible spectrophotometric analysis; conditions: Homo sapiens
[11] = system: O=C(N/N=C/c1ccc(O)cc1)c1csc(Nc2ccc([N+](=O)[O-])cc2)n1; test: as §1; conditions: Homo sapiens
[12] = system: COc1cc(/C=N/NC(=O)c2csc(Nc3ccc([N+](=O)[O-])cc3)n2)ccc1O; test: as §1; conditions: Homo sapiens
[13] = system: O=C(N/N=C/c1ccc(Cl)cc1)c1csc(Nc2ccc([N+](=O)[O-])cc2)n1; test: as §1; conditions: Homo sapiens
[14] = system: COc1cc(/C=N/NC(=O)c2csc(Nc3ccc([N+](=O)[O-])cc3)n2)cc(OC)c1OC; test: (§2) Uncompetitive inhibition of alpha-amylase (unknown origin) using starch as substrate assessed as decrease in Vmax incubated for 30 mins by UV-visible spectrophotometric analysis; conditions: Homo sapiens
[15] = system: O=C(N/N=C/c1ccc(O)cc1)c1csc(Nc2ccc([N+](=O)[O-])cc2)n1; test: as §2; conditions: Homo sapiens
[16] = system: COc1cc(/C=N/NC(=O)c2csc(Nc3ccc([N+](=O)[O-])cc3)n2)ccc1O; test: as §2; conditions: Homo sapiens
[17] = system: O=C(N/N=C/c1ccc(Cl)cc1)c1csc(Nc2ccc([N+](=O)[O-])cc2)n1; test: as §2; conditions: Homo sapiens

Row | Molecule | IC50 [1] | IC50 [2] | IC50 [3] | IC50 [4] | further results
1 | Cc1cccc(-c2nc3scc(-c4cccc([N+](=O)[O-])c4)n3n2)c1 | – | – | – | – | IC50 [5]: 1.1 µM
2 | O=C(N/N=C/c1cccc(F)c1)c1csc(Nc2ccccc2)n1 | 8.42 µM | 9.48 µM | 0.43 µM | 7.77 µM | –
3 | O=C(N/N=C/c1ccccc1)c1csc(Nc2ccc([N+](=O)[O-])cc2)n1 | 11.2 µM | 7.32 µM | 0.37 µM | 23.2 µM | –
4 | C#Cc1cccc(Nc2ncnc3cc(OCCOC)c(OCCOC)cc23)c1 [ERLOTINIB] | 1.23 µM | 1.11 µM | – | 2.54 µM | –
5 | COc1ccc(Nc2nc(C(=O)N/N=C/c3cccc(N)c3)cs2)cc1 | 10 µM | 14.9 µM | 0.46 µM | > 25 µM | –
6 | COc1cc(/C=N/NC(=O)c2csc(Nc3ccc([N+](=O)[O-])cc3)n2)cc(OC)c1OC | 1.62 µM | 1.03 µM | 0.26 µM | 2.67 µM | Activity [6]: Non-Toxic; Activity [7]: 22.34%
7 | O=C(N/N=C/c1ccccc1)c1csc(Nc2ccccc2)n1 | 5.98 µM | 6.43 µM | 0.48 µM | > 25 µM | –
8 | COc1cc2c(c(OC)c1OC)-c1ccc(OC)c(=O)cc1[C@@H](NC(C)=O)CC2 [COLCHICINE] | 1.09 µM | 1.85 µM | – | 1.98 µM | –
9 | O=C(N/N=C/c1ccc(F)cc1)c1csc(Nc2ccc([N+](=O)[O-])cc2)n1 | 5.43 µM | 7.66 µM | 0.34 µM | 8.33 µM | –
10 | CC(=O)c1sc(N/N=C(/C)c2ccc(Cl)cc2)nc1C | – | – | – | – | IC50 [8]: 4.79 µM
11 | NNC(=O)c1csc(N/N=C/c2cccc(Br)c2)n1 | – | – | – | – | IC50 [8]: 31 µg/mL
12 | Cc1c(C(=O)N/N=C/c2ccc(O)c(O)c2)oc2ccccc12 | – | – | – | – | IC50 [8]: 1.24 µM
13 | Cc1ccc([C@H]2C3CSCN3[C@@]3(C(=O)Nc4ccccc43)[C@]23N=C(c2ccccc2)OC3=O)cc1 (some centres undefined) | – | – | – | – | IC50 [8]: 1.76 µM
14 | COc1cc(/C=N/NC(=O)c2csc(Nc3ccccc3)n2)ccc1O | 12 µM | 10.1 µM | 0.41 µM | 14.5 µM | –
15 | Cc1ccc(-c2csc(N/N=C(/CSc3nnc4c(n3)[nH]c3ccccc34)c3ccc([N+](=O)[O-])cc3)n2)cc1 | – | – | – | – | IC50 [9]: 1.2 µM
16 | COc1cc(-c2nc3ccccc3[nH]2)ccc1OCC(=O)Nc1ccccc1C | – | – | – | – | IC50 [8]: 11 µM
17 | COc1cc(/C=N/NC(=O)c2csc(Nc3ccc([N+](=O)[O-])cc3)n2)ccc1O | 1.99 µM | 2.43 µM | 0.24 µM | 4.98 µM | Activity [6]: Non-Toxic; Activity [7]: 27.19%
18 | Alpha amylase (Homo sapiens) (from UniProt P0DUB6) | – | – | – | – | Km [10]: 1190 µM; Km [11]: 830 µM; Km [12]: 1030 µM; Km [13]: 804 µM; Vmax [14]: 3.24 µmol/min; Vmax [15]: 0.916 µmol/min; Vmax [16]: 1.81 µmol/min; Vmax [17]: 1.56 µmol/min
19 | COc1ccc(Nc2nc(C(=O)N/N=C/c3ccccc3)cs2)cc1 | 6.32 µM | 4.32 µM | 0.49 µM | > 25 µM | –
20 | O=C1CS/C(=N\N=C\c2ccc(OS(=O)(=O)c3ccccc3[N+](=O)[O-])cc2)N1 | – | – | – | – | IC50 [8]: 42.8 µM
21 | O=[N+]([O-])c1ccc(/C(CSc2nnc3c(n2)[nH]c2ccccc23)=N\Nc2nc(-c3ccc([N+](=O)[O-])cc3)co2)cc1 | – | – | – | – | IC50 [9]: 1.2 µM
22 | O=C(N/N=C/c1ccc(O)c(O)c1)c1csc(Nc2ccccc2)n1 | 9.86 µM | 12.2 µM | 0.45 µM | 14.9 µM | –
23 | Fc1cccc(-c2nc3scc(-c4ccc(Br)cc4)n3n2)c1 | – | – | – | – | IC50 [5]: 3.2 µM
24 | COc1ccc(/C=N/NC(=O)c2csc(Nc3ccc([N+](=O)[O-])cc3)n2)cc1 | 8.97 µM | 4.65 µM | 0.32 µM | 14 µM | –

Continued, in another order:

Row | IC50 [1] | IC50 [2] | IC50 [3] | IC50 [4] | Molecule | further results
25 | 14 µM | 17.2 µM | 0.39 µM | > 25 µM | O=C(N/N=C/c1ccc(Cl)cc1)c1csc(Nc2ccc(Cl)cc2)n1 | –
26 | 6.49 µM | 7.62 µM | 0.38 µM | 3.89 µM | O=C(N/N=C/c1ccccc1)c1csc(Nc2ccc(Cl)cc2)n1 | –
27 | 5.09 µM | 5.43 µM | 0.39 µM | 5.6 µM | O=C(N/N=C/c1ccc(O)c(O)c1)c1csc(Nc2ccc(Cl)cc2)n1 | –
28 | 3.98 µM | 4.99 µM | 0.43 µM | 4.95 µM | COc1ccc(Nc2nc(C(=O)N/N=C/c3ccc(O)c(OC)c3)cs2)cc1 | –
29 | 7.99 µM | 6.96 µM | 0.5 µM | 9.87 µM | COc1ccc(Nc2nc(C(=O)N/N=C/c3ccc(O)cc3)cs2)cc1 | –
30 | 10.3 µM | 12.2 µM | 0.41 µM | 9.32 µM | COc1ccc(Nc2nc(C(=O)N/N=C/c3ccc(Cl)cc3)cs2)cc1 | –
31 | 7.43 µM | 5.67 µM | 0.41 µM | 15.7 µM | O=C(N/N=C/c1ccc(O)cc1)c1csc(Nc2ccc(Cl)cc2)n1 | –
32 | 7.88 µM | 7.83 µM | 0.47 µM | 6.89 µM | COc1ccc(/C=N/NC(=O)c2csc(Nc3ccc(OC)cc3)n2)cc1 | –
33 | 2.97 µM | 2.31 µM | 0.43 µM | 3.22 µM | COc1ccc(Nc2nc(C(=O)N/N=C/c3ccc(OC)c(OC)c3)cs2)cc1 | –
34 | 2.63 µM | 2.96 µM | 0.29 µM | 6.77 µM | O=C(N/N=C/c1ccc(Cl)cc1)c1csc(Nc2ccc([N+](=O)[O-])cc2)n1 | Activity [6]: Non-Toxic; Activity [7]: 28.62%
35 | 11.3 µM | 13.2 µM | 0.4 µM | 16.1 µM | COc1ccc(/C=N/NC(=O)c2csc(Nc3ccc(Cl)cc3)n2)cc1 | –
36 | 2.16 µM | 2.88 µM | 0.32 µM | 6.55 µM | COc1cc(/C=N/NC(=O)c2csc(Nc3ccc(Cl)cc3)n2)ccc1O | –
37 | 11.3 µM | 4.44 µM | 0.45 µM | 8.33 µM | O=C(N/N=C/c1ccc(O)cc1)c1csc(Nc2ccccc2)n1 | –
38 | 20.2 µM | 13.2 µM | 0.35 µM | 13.2 µM | C/C(=N\NC(=O)c1csc(Nc2ccc(Cl)cc2)n1)c1ccccn1 | –
39 | 4.98 µM | 5.99 µM | 0.39 µM | 5.56 µM | COc1ccc(/C=N/NC(=O)c2csc(Nc3ccc(O)cc3)n2)cc1OC | –
